Results on 1 molecule are retold here after patent publication US20090247495A1, “CU[…] AND USES THEREOF” (priority 2007, published 2009).

≈ marks a conversion by molar mass, not a printed value. Entries after “also recorded” stand apart in the source; their conditions may differ.

For one test, the system named is Raf/Mek/Erk pathway. The test is described as follows: Western blot of phosphorylated c-Raf, Mek1/2, Erk1/2 and Elk-1 in K562 cells. It is filed as cell-based, human. As to conditions: 50 μM. On the procedure: K562 leukemia cells were serum starved for 18 hours prior to cucurbitacin B treatment. The cells were incubated at a 75-mm culture flask filled with 10 ml growth medium (RPMI with 10% FBS and 1% PS) at the cell density of 1×10^5 cells/ml in the presence or absence of cucurbitacin B for various time intervals. The drug treatment were terminated by centrifugation at 1500 rpm for 5 minutes and the cells were rinsed twice with phosphate-buffered saline and lysed at 4° C. in a lysis buffer containing 50 mM Tris-HCl, pH7.5, […], 5 mM EDTA, 40 mM NaP2O7, 1% Triton X-100, 1 mM dithiothreitol, 200 μM Na3VO4, 100 μM phenylmethysufonyl fluoride, 2 μg/ml leupeptin, 4 μg/ml aprotinin and 0.7 μg/ml pepstatin. The insoluble protein lysate were removed by centrifugation for 10 minutes at 13000 rpm. Fifteen micrograms of protein lysate was resolved using SDS-polyacryamide gel electrophoresis (PAGE) (usually 8%-12% polyacrylamide gel) and then subjected to western blot anaylsis. Western blots were performed with antibodies specific for phosphorylated and total Stat3, c-Raf, Mek, and Erk. […]
In order to further investigate if cucurbitacin B block the Stat3 activation is truly through Erk pathway in K562 cells, the ability of cucurbitacin B to inhibit the Ras/Raf/Mek/Erk pathway was determined by measuring Ras-GTP, phosphorylation of c-Raf, Mek1/2, Erk1/2 and Elk-1 in K562 cells. […]
For orientation: Immunoblotting shows a protein as a band on a membrane.

The test system of a further test is K562 cells. Description: Flow cytometry for cell cycle analysis, K562. It is filed as cell-based, human. Conditions: 80 nM, 48 hours, serum starved 24 hours. The protocol:
K562 cells were serum starved for 24 hours prior to cucurbitacin B treatment. After 48 hours of treatment, the cells were collected and rinsed twice with phosphate-buffer saline and fixed with 80% ice-cold ethanol for […]. Then, the cells were stained with propidium iodine at 1 mg/ml for 15 minutes at room temperature. The stained cells were analyzed by flow cytometry (FACS Calibur BD Flow Cytometer) • 6.1.6 Western Blot Analysis
Appropriate numbers of cell density were serum starved for 24 hours prior to treatment with different doses of cucurbitacin B for 2 days. The cell cycle analysis profile of K562 cells after cucurbitacin B treatment were detected using Flow Cytometry analysis after fixed with 80% ice-cold ethanol at 4° C. and then stained with PI for 15 minutes.

Another test concerns hsp27. The test is described as follows: Western blot of hsp27 in HepG2, HT29 and MCF-7 cells. It is filed as cell-based, human. On the procedure: The human cancer cells line were serum starved for 18 hours prior to CuB/CuD treatment. Cells were incubated in a 6-well plate filled with 5 ml growth medium (RPMI with 0.2% FBS and 1% PS) at the cell density of 1×10^5 cells/ml, in the presence or absence of two different dosages of CuB/CuD for various time intervals. The drug treatment was terminated by centrifugation at 1,500 rpm for 5 minutes and the cells were rinsed twice with phosphate-buffered saline and lysed at 4° C. in a lysis buffer containing 50 mM Tris-HCl, pH7.5, 100 mM NaCl, 5 mM EDTA, 40 mM NaP2O7, 1% Triton X-100, 1 mM dithiothreitol, 200 μM Na3VO4, 100 uM phenylmethysufonyl fluoride, 2 μg/ml leupeptin, 4 μg/ml aprotinin and 0.7 μg/ml pepstatin. The insoluble protein lysate were removed by centrifugation for 10 minutes at 13,000 rpm. Fifteen micrograms of protein lysate was resolved using 10% SDS-polyacryamide gel electrophoresis (PAGE) and then subjected to western blot anaylsis. Western blots were performed with anti-Stat3, anti-Erk1/2 and anti-hsp27 antibodies specific for phosphor- and total Stat3, Erk and hsp27 proteins. The protein bands were then visualized with the Enhanced Chemiluminescence Plus (ECL Plus) detection system (Amersham). • 6.2.8.1 Inhibition Effect Cucurbitacin B/Cucurbitacin D on Stat3 Activation in HepG2 and HT29 Cells
Cells were incubated either with CuB or CuD (25 ug/ml or the dosage of IC50) for various time intervals (5, 10 or 30 mins, 1 or 4 hours). The Stat3 activation was detected by western blot.

In test [1] the test system is HepG2(liver), HT29(colon) and MCF-7(breast). Description: MTT cell cytotoxicity assay, three cancer cell lines. It counts as cell-based. Conditions: Homo sapiens; 48 hours; range over the three cell lines. On the procedure: Three human cancer cell lines (HepG2(liver), HT29(colon) and MCF-7(breast)) were purchased from American Type Culture Collection (ATCC, Manassas, Va., USA). The cells were cultured in RPMI 1640 medium supplemented with 5% (v/v) fetal bovine serum (FBS) and 100 units/ml penicillin and streptomycin (Invitrogen Life Technologies) in a humidified 5% CO2 atmosphere at 37° C.
The cytotoxic effect of CuB and CuD on these three cancer cell lines were determined using MTT (3-[4,5-dimethylthiazol-2-yl]-2,5-diphenyl tetrazolium bromide) labeled cell cytotoxicity assay. A total of 1×10^4 cells were seeded into a 96-well plate for 24 hours prior to cucurbitacin B (CuB) or cucurbitacin D (CuD) treatment. They were then treated with different dosages of CuB/CuD for 48 hours. After the treatment, 20 μl of MTT (5 mg/ml) was added to each well and incubated for 4 hrs. Then the medium was discarded and 100 μl of dimethyl sulfoxide was added. The absorbance at 570 nm was then measured by using FLUOstar OPTIMA equipment (BMG, LABTECH GmbH, Germany). The percentage of inhibition against different dosages of CuB/CuD were plotted using the Prism software and the 50% inhibition concentration (IC50) were obtained.
On the technique in general: Formazan colour is commonly taken as a measure of viable cells.

Test [2] has as its system Human cancer cell lines from the 59-NCI Cancer Cell Line Panel. It counts as cell-based.
A further test relates to HepG2. Description: Hollow fiber assay, HepG2. It is filed as in vivo, nude mice. Conditions: 0.2 mg/kg, i.p., s.c. and p.o., up to 14 days. On the procedure: The hollow fiber assay (HFA) was developed by the NCI as a high-throughput, preliminary in vivo screening assay for the evaluation of anti-cancer agents. Human liver cancer cell lines HepG2 and HepG2-resistant (HepG2-R) were in vitro cultured inside hollow fibers for a short term (48 hours), followed by in vivo implantation at s.c. sites of the nude mice. Mice were treated with negative control (0.5% CMC), positive control (10 mg/kg 5-Fluorouracil) and cucurbitacin B (0.2 mg/kg) for up to 14 days. Then the fibers were excised and analyzed for cell viability by MTT assay. The efficacies of cucurbitacin B against HepG2 and HepG2-R were expressed as the percentage of the results obtained in the negative control group.

Take `CC(=O)OC(C)(C)/C=C/C(=O)[C@](C)(O)C1[C@H](O)C[C@@]2(C)C3CC=C4C(C[C@H](O)C(=O)C4(C)C)[C@]3(C)C(=O)C[C@]12C` (stereo partly shown) [cucurbitacin B]: the “activation (phosphorylation) of c-Raf, Mek1/2, Erk1/2 and Elk-1” value with Raf/Mek/Erk pathway (5 minutes treatment) is “significantly inhibited; also recorded: significant disruption”. Besides, the “inhibition of the Raf/Mek/Erk pathway” value in the test on Raf/Mek/Erk pathway (4 hours) was “Complete inhibition”. The “percentage in the G2/M phase” value in the test on K562 cells is listed as 70%. Besides, the Hsp27 activation entry is reported as “significant up-regulation” with hsp27 (HT29, 10 minutes); “significant up-regulation” with hsp27 (HepG2, 30 minutes); “significant up-regulation” with hsp27 (MCF-7, 4 hours). This molecule also registered an IC50 in test [1] of 0.31 to 1.6 µg/mL (≈ 0.555 to 2.86 µM). Moreover, the “cell lines with G2/M arrest” value in test [2] is recorded as 6 out of 18. For the same molecule, the cell cycle effect result in test [2] (HL60 (TB), 48 hours) is “G2/M arrest and endoreduplication”. The “cell growth in hollow fibers” value with HepG2 was “potently inhibited”.

In general, IC50 refers to the concentration at which inhibition is half-maximal. Read a high IC50 as lower potency.
